{"source": "patent US20260218439A1", "about": "“METHOD OF TREATING OR REDUCING CANCER COMPRISING ADMINISTERING A COMPOUND 3-(BENZO[D][1,3]DIOXOL-5-YL)-7-(1-HYDROXYPROPAN-2-YL)-1-(1H-INDOLE-3-YL)-6,7-DIHYDRO-3H-OXAZOLE[3,4-A]PYRAZINE-5,8-DIONE” (BIOLAB SANUS FARMACEUTICA LTDA, priority 2019, published 2026)", "key": {"PDE5A1": {"target": "T1, PDE5A1 (Homo sapiens, UniProt O76074)", "T1 construct": "purchased BPS Bioscience 60350", "experiment": "PDE5A1 fluorescence polarization enzyme assay (BPS Bioscience kit 60350)", "assay_type": "biochemical", "protocol": "The evaluation of the compound is studied using BPS Bioscience enzyme assay kit (catalogue 60350). The PDE5A1 Assay kit is designed for identification of PDE5A1 inhibitors using fluorescence polarization. The assay is based on the binding of a fluorescent nucleotide monophosphate generated by PDE5A1 enzyme to the binding agent.\nIn this methodology only two simple steps on a microtiter plate are required for PDE5A1 reactions. First, the fluorescently labeled cGMP is incubated with PDE5A1 for 1 hour. Second, the binding agent is added to the reaction mixture to produce a change in fluorescent polarization that can then be measured using a fluorescence reader equipped for the measurement of fluorescence polarization.\nFor the assay the storage reagent FAM-Cyclic-3′,5′-GMP (20 μM) is diluted with PDE assay buffer to achieve the solution with a […]; the PDE5A1 enzyme is thawed and diluted with the PDE buffer obtaining a PDE5A1 solution at 10 μg/mL.\nThe assay compounds are diluted with DMSO 100% (v/v) at a concentration of 1000 μM and subsequently diluted in a Sodium chloride 0.9% solution to obtain a curve of concentrations of interest for the assay. The compounds are diluted in concentrations of: 10 nM, 30 nM, 50 nM, 100 nM, 300 nM, 500 nM, 1 μM, 3 μM, 5 μM (DMSO 10% v/v).\nThe study is comprised of groups: (i) substrate control; (ii) positive control (KIT); (iii) samples in several concentrations; (iv) tadalafil (comparative control). Each parameter (group) is triple labeled.\n• For the 4 groups there is added, to each microplate well, […] of the FAM-Cyclic-3′ reagent, 5′-GMP (200 μM). • To the substrate control group there is added, to each well, […] of vehicle (DMSO 10% v/v) and […] PDE Buffer. • To the positive control group there is added, to each well, […] of vehicle (DMSO 10% v/v). • To the tadalafil group: there is added 5 mL of the solution in the concentrations of interest. • To the test group there is added 5 mL of the sample solution (test compound)\nOBSERVATION: the parameters tested are in triplicate.\nTo begin the reaction, add […] of the PDE5A1 enzyme (diluted as described above) to the microplate wells designated as Positive Control and Samples (test and tadalafil), and incubate the microplate, for 1 hour, at a temperature of 25° C.\nAfter the incubation period, the reaction is interrupted by the addition, in all the wells, of […] of the binding agent solution and the microplate is incubated for 30 minutes, under light stirring, at room temperature. The reading of the microplate is carried out in Polarized Fluorescence (475-495 nm—excitation and 518-538 nm—emission detection) 500 nanoseconds integration time."}, "[1]": {"tested_on": "PC3-human prostate cancer cells", "experiment": "Cell proliferation inhibition (CYQuant intracellular DNA), PC3", "assay_type": "cell-based", "conditions": "for % Cell Proliferation Inhibition (intracellular DNA) PC-3 (average ± E.P.M.): 72 hours", "protocol": "(§1) For the execution of the assay, the compounds are diluted in DMSO 100% (v/v) at a concentration of 1000 μM and subsequently diluted in a Sodium Chloride solution 0.9% to obtain the storage solutions of interest for use in the assays. The final concentration of interest will be directly diluted in the cell culture medium. For the assay there are used the following tumor cell lineages: PC3-human prostate cancer cells; LNCAP-human prostate cancer cells; DU145-human prostate cancer; MNK45-human gastric cancer and RT4-human bladder cancer cells. The tumor cell lineages are maintained in culture according to standard procedures established by the Cell Bank of Rio de Janeiro (lineage place of origin) Procedure: • For the assay, the tumor cells are seeded in the concentration of 10.000 cells per well (final volume of the reaction of […]), the plate is incubated for 8 hours, for the cells to adhere to the wall of the wells. After this period, the plate is divided in groups: • (a) test group: […] of the samples were added (test compound) in the concentrations of interest; • (b) positive control group: […] of culture medium were added (100% of cell proliferation); • (c) negative control group: 200 mL of culture medium and […] of the vehicle used were added to dilute the compounds (without cells—zero proliferation); • (d) control group: […] were added of the vehicle used to dilute the compounds. This group is important to evaluate whether the vehicle used interferes in the cell proliferation. OBSERVATION: the treatment with the concentrations of samples (test compounds) and of the controls are carried out in triplicate. • Incubate the plate for 72 hours in a CO2 kiln at 37° C. • After the incubation period, add […] of the solution with DNA marker from the CYQuant Kit and incubate the plate, for 60 minutes, in a CO2 incubator at 37° C. The fluorescence intensity is determined using a fluorescence microplate reader with 485 nm excitation and 530 nm emission detection. The results obtained were normalized relative to the positive control group (100% proliferation). For the compounds there are prepared the storage solutions in the concentrations of: 100 nM, 1 μM, 3 μM, 5 μM, 10 μM and 30 μM (DMSO 10% v/v). While the final concentrations in the test are of: 10 nM, 100 nM, 300 nM, 500 nM, 1000 nM and 3000 nM (in DMSO 1% v/v)."}, "[2]": {"tested_on": "LNCAP-human prostate cancer cells", "experiment": "Cell proliferation inhibition (CYQuant intracellular DNA), LNCAP", "assay_type": "cell-based", "conditions": "for % Cell Proliferation Inhibition (intracellular DNA) LNCAP (average ± E.P.M.): 72 hours", "protocol": "as §1"}, "[3]": {"tested_on": "DU145-human prostate cancer", "experiment": "Cell proliferation inhibition (CYQuant intracellular DNA), DU145", "assay_type": "cell-based", "conditions": "for % Cell Proliferation Inhibition (intracellular DNA) DU145 (average ± E.P.M.): 72 hours", "protocol": "as §1"}, "[4]": {"tested_on": "MNK45-human gastric cancer", "experiment": "Cell proliferation inhibition (CYQuant intracellular DNA), MNK45", "assay_type": "cell-based", "conditions": "72 hours", "protocol": "as §1"}, "[5]": {"tested_on": "RT4-human bladder cancer cells", "experiment": "Cell proliferation inhibition (CYQuant intracellular DNA), RT4", "assay_type": "cell-based", "conditions": "for % Cell Proliferation Inhibition (intracellular DNA) RT4 (average ± E.P.M.): 72 hours", "protocol": "as §1"}}}
{"substance": "(R)-3-(benzo [d][1, 3]dioxol-5-yl)-7-((S)-1-hydroxypropan-2-yl)-1-(1H-indole-3-yl)-6, 7-dihydro-3H-oxazole [3, 4-a]pyrazine-5, 8-dione with (S)-3-(benzo [d][1,3]dioxol-5-yl)-7-((S)-1-hydroxypropan-2-yl)-1-(1H-indole-3-yl)-6, 7-dihydro-3H-oxazole [3, 4-a]pyrazine-5, 8-dione [BL-241]", "values": [{"measurement": "% of Inhibition (PDE5A1)", "setting": "PDE5A1; compound 500 nM", "result": 57, "unit": "%"}, {"measurement": "% of Inhibition (PDE5A1)", "setting": "PDE5A1; compound 1000 nM", "result": 71, "unit": "%"}, {"measurement": "% of Inhibition (PDE5A1)", "setting": "PDE5A1; compound 3000 nM", "result": 88, "unit": "%"}, {"measurement": "PDE5 inhibition (result in words)", "setting": "PDE5A1; concentration series", "result": "capable of inhibiting the PDE5 in a dose-dependent manner"}, {"measurement": "antiproliferative effect (result in words)", "setting": "[1]; PC3 prostate cancer tumor lineage", "result": "presented antiproliferative effect"}, {"measurement": "% Cell Proliferation Inhibition (intracellular DNA) PC-3 (average ± E.P.M.)", "setting": "[1]; PC-3, 10 nM", "result": "27 ± 11", "unit": "%"}, {"measurement": "% Cell Proliferation Inhibition (intracellular DNA) PC-3 (average ± E.P.M.)", "setting": "[1]; PC-3, 100 nM", "result": "36 ± 7", "unit": "%"}, {"measurement": "% Cell Proliferation Inhibition (intracellular DNA) PC-3 (average ± E.P.M.)", "setting": "[1]; PC-3, 300 nM", "result": "42 ± 6", "unit": "%"}, {"measurement": "% Cell Proliferation Inhibition (intracellular DNA) PC-3 (average ± E.P.M.)", "setting": "[1]; PC-3, 500 nM", "result": "46 ± 1", "unit": "%"}, {"measurement": "% Cell Proliferation Inhibition (intracellular DNA) PC-3 (average ± E.P.M.)", "setting": "[1]; PC-3, 1000 nM", "result": "33 ± 3", "unit": "%"}, {"measurement": "antiproliferative effect (result in words)", "setting": "[2]; LNCAP prostate cancer tumor lineage", "result": "presented antiproliferative effect"}, {"measurement": "% Cell Proliferation Inhibition (intracellular DNA) LNCAP (average ± E.P.M.)", "setting": "[2]; 10 nM", "result": "25 ± 2", "unit": "%"}, {"measurement": "% Cell Proliferation Inhibition (intracellular DNA) LNCAP (average ± E.P.M.)", "setting": "[2]; 100 nM", "result": "37 ± 3", "unit": "%"}, {"measurement": "% Cell Proliferation Inhibition (intracellular DNA) LNCAP (average ± E.P.M.)", "setting": "[2]; 300 nM", "result": "38 ± 4", "unit": "%"}, {"measurement": "% Cell Proliferation Inhibition (intracellular DNA) LNCAP (average ± E.P.M.)", "setting": "[2]; 500 nM", "result": "44 ± 2", "unit": "%"}, {"measurement": "% Cell Proliferation Inhibition (intracellular DNA) LNCAP (average ± E.P.M.)", "setting": "[2]; 1000 nM", "result": "34 ± 6", "unit": "%"}, {"measurement": "% Cell Proliferation Inhibition (intracellular DNA) DU145 (average ± E.P.M.)", "setting": "[3]; DU145, 100 nM", "result": "33 ± 8", "unit": "%"}, {"measurement": "% Cell Proliferation Inhibition (intracellular DNA) DU145 (average ± E.P.M.)", "setting": "[3]; DU145, 300 nM", "result": "17 ± 3", "unit": "%"}, {"measurement": "% Cell Proliferation Inhibition (intracellular DNA) DU145 (average ± E.P.M.)", "setting": "[3]; DU145, 500 nM", "result": "18 ± 2", "unit": "%"}, {"measurement": "% Cell Proliferation Inhibition (intracellular DNA) DU145 (average ± E.P.M.)", "setting": "[3]; DU145, 1000 nM", "result": "22 ± 2", "unit": "%"}, {"measurement": "% Cell Proliferation Inhibition (intracellular DNA) DU145 (average ± E.P.M.)", "setting": "[3]; DU145, 3000 nM", "result": "43 ± 5", "unit": "%"}, {"measurement": "antiproliferative effect (result in words)", "setting": "[3]; DU145 prostate cancer tumor lineage", "result": "presented antiproliferative effect"}, {"measurement": "% Cell Proliferation Inhibition (intracellular DNA) MNK45 (average ± E.P.M.)", "setting": "[4]; MNK45, 100 nM", "result": "25 ± 1", "unit": "%"}, {"measurement": "% Cell Proliferation Inhibition (intracellular DNA) MNK45 (average ± E.P.M.)", "setting": "[4]; MNK45, 300 nM", "result": "10 ± 2", "unit": "%"}, {"measurement": "% Cell Proliferation Inhibition (intracellular DNA) MNK45 (average ± E.P.M.)", "setting": "[4]; MNK45, 500 nM", "result": "2 ± 1", "unit": "%"}, {"measurement": "% Cell Proliferation Inhibition (intracellular DNA) MNK45 (average ± E.P.M.)", "setting": "[4]; MNK45, 1000 nM", "result": "4 ± 1", "unit": "%"}, {"measurement": "% Cell Proliferation Inhibition (intracellular DNA) MNK45 (average ± E.P.M.)", "setting": "[4]; MNK45, 3000 nM", "result": "20 ± 3", "unit": "%"}, {"measurement": "% Cell Proliferation Inhibition (intracellular DNA) RT4 (average ± E.P.M.)", "setting": "[5]; RT4, 100 nM", "result": "28 ± 6", "unit": "%"}, {"measurement": "% Cell Proliferation Inhibition (intracellular DNA) RT4 (average ± E.P.M.)", "setting": "[5]; RT4, 300 nM", "result": "5 ± 2", "unit": "%"}, {"measurement": "% Cell Proliferation Inhibition (intracellular DNA) RT4 (average ± E.P.M.)", "setting": "[5]; RT4, 500 nM", "result": "4 ± 2", "unit": "%"}, {"measurement": "% Cell Proliferation Inhibition (intracellular DNA) RT4 (average ± E.P.M.)", "setting": "[5]; RT4, 1000 nM", "result": "11 ± 8", "unit": "%"}, {"measurement": "% Cell Proliferation Inhibition (intracellular DNA) RT4 (average ± E.P.M.)", "setting": "[5]; RT4, 3000 nM", "result": "57 ± 4", "unit": "%"}, {"measurement": "antiproliferative effect (result in words)", "setting": "[5]; RT4 bladder cancer tumor lineage", "result": "presented antiproliferative effect"}]}
